Broadly, the EC50 is the concentration needed to bring the measured effect to its halfway point. Usually CC50 stands for the concentration giving 50% cytotoxicity. Usually IC50 stands for the concentration that inhibits the measured activity by half.

The test system of series [1] is Chikungunya virus. In words: Antiviral activity against Chikungunya virus 899 infected in African green monkey Vero cells by MTS assay. The class given is functional, organism-based. Conditions: Chikungunya virus, 899, Vero.
Series [2] is described as follows: Cytotoxicity against African green monkey Vero cells assessed as reduction in cell viability after 18 hrs by […]. In kind it is cell-based. Conditions: chlorocebus sabaeus. A general note: In qPCR the cycle at which signal appears reflects the starting amount.
Series [3] can be described thus: Selectivity index, ratio of CC50 for African green monkey Vero cells to EC50 for Chikungunya virus 899. The class given is toxicity. Conditions: read-out: Ratio CC50/EC50.
The subject of series [4] is Chikungunya virus. In words: Antiviral activity against Chikungunya virus infected in African green monkey Vero cells assessed as inhibition of virus-induced cytopathogenic effect measured on day 6 to 7 post infection by MTS dye-based microscopic analysis. The following applies: 144 h. The class given is functional, organism-based. (In general: Cytopathic effects are the visible damage that an infection or toxin causes in cultured cells.)

Series [5] in a line: Cytotoxicity against African green monkey Vero cells assessed as reduction in cell viability measured on day 6 to 7 post infection by MTS dye-based microscopic analysis. Conditions: chlorocebus sabaeus. (Tetrazolium dyes change colour on reduction, which living cells bring about.)
Series [6] has as its system Chikungunya virus. In words: Antiviral activity against Chikungunya virus infected in African green monkey Vero cells after 72 hrs by MTT dye-based assay. The class given is functional, organism-based.
The subject of series [7] is Chikungunya virus. In words: Antiviral activity against Chikungunya virus LR2006 OPY1 infected in BHK cells measured at 14 hrs post infection by luciferase reporter gene assay. The class given is functional, organism-based.
Series [8] can be described thus: Cytotoxicity against BHK cells assessed as reduction in cell viability after 48 hrs in presence of ATP by Celltiter-Glo luminescent assay. The class given is cell-based, Mesocricetus auratus. Conditions: hamster.
Series [9] can be described thus: Selectivity index, ratio of CC50 for BHK cells to IC50 for Chikungunya virus LR2006 OPY1. In kind it is toxicity. The following applies: hamster, read-out: Ratio CC50/IC50.

For `O=c1cc(CSc2nc(O)c3ccccc3n2)c2ccc(O)cc2o1`, in the series with Chikungunya virus [1], the midpoint of the response, the EC50, lay at 192 µM. The CC50 at 18 h in [2] is greater than 284 µM. In series [3], the selectivity ratio is greater than 1.5.

`C=C(C)[C@@]1(O)[C@@H]2OC3(c4ccccc4)O[C@H]1[C@@H](C)[C@]1(O3)C3=CC(=C(Cl)Cl)[C@H](OC(=O)c4ccccc4)[C@@]3(O)[C@H](OC(C)=O)[C@@]3(COC(C)=O)O[C@H]3[C@@H]21`: the EC50 in the series with Chikungunya virus [4] was determined as 1.5 µM. For the same compound, the CC50 in series [5] worked out at 35 µM.

`C=C(C)[C@@]1(Oc2ccccc2)[C@@H]2OC3(c4ccccc4)O[C@H]1[C@@H](C)[C@]1(O3)C3=CC(=C(Cl)Cl)C[C@@]3(O)C[C@@]3(Cc4ccccc4)O[C@H]3[C@@H]21`: in the series with Chikungunya virus [4], the EC50 came out at 2.6 µM. In addition, the CC50 in [5] was found to be 93 µM.

On to `Cc1ccc2nc(SCc3cc(=O)oc4cc(OS(=O)(=O)c5ccc([N+](=O)[O-])cc5)ccc34)[nH]c(=O)c2c1`, for which the EC50 with Chikungunya virus [1] was greater than 199 µM.

For `Cc1ccc(S(=O)(=O)Oc2ccc3c(CSC4=NCCC(=O)N4)cc(=O)oc3c2)cc1`, a half-maximal response in the series with Chikungunya virus [1] (EC50) required 23.1 µM. Further, the CC50 at 18 h in series [2] worked out at 60.2 µM. Also, in series [3], the selectivity ratio is 2.6.

In the series on Chikungunya virus [1], `Cc1cnc(SCc2cc(=O)oc3cc(OCc4ccc(F)cc4)ccc23)[nH]c1=O` yielded an EC50 of 45.1 µM. In series [2], the CC50 at 18 h was determined as 104 µM. For the same compound, the selectivity ratio in series [3] is 2.3.

Regarding `O=c1cc(CSc2nc3ccccc3c(=O)[nH]2)c2ccc(OS(=O)(=O)c3ccc([N+](=O)[O-])cc3)cc2o1`, the EC50 in the series with Chikungunya virus [1] came out at 54.5 µM. Also, in series [2], the CC50 at 18 h was 117 µM. In series [3], the selectivity ratio is 2.2.

Compound `O=c1ccnc(SCc2cc(=O)oc3cc(OCc4ccccc4)ccc23)[nH]1` had an EC50 in the series with Chikungunya virus [1] greater than 255 µM.

In the series with Chikungunya virus [1], `O=c1cc(CSc2nc3ccccc3c(=O)[nH]2)c2ccc(OS(=O)(=O)c3ccccc3)cc2o1` registered an EC50 of 19.1 µM. The CC50 at 18 h in series [2] was determined as 178 µM. Moreover, in [3], the selectivity ratio was 9.3.

On to `C=C(C)[C@@]1(Oc2ccccc2)[C@@H]2OC3(c4ccccc4)O[C@H]1[C@@H](C)[C@]1(O3)C3=CC(=C(Cl)Cl)[C@H](c4ccccc4)[C@@]3(O)C[C@@]3(C)O[C@H]3[C@@H]21`, for which the EC50 in the series with Chikungunya virus [4] is 3 µM. Also, the CC50 in series [5] amounted to 23.1 µM.

In the case of `Cc1ccc2nc(SCc3cc(=O)oc4cc(OS(=O)(=O)c5ccccc5[N+](=O)[O-])ccc34)[nH]c(=O)c2c1`, in the series on Chikungunya virus [1], the EC50 was 19 µM. In addition, the CC50 at 18 h in series [2] is 107 µM. Also, in series [3], the selectivity ratio stood at 5.6.

Consider `O=C1CCN=C(SCc2cc(=O)oc3cc(OS(=O)(=O)c4ccccc4[N+](=O)[O-])ccc23)N1`, for which the response in the series with Chikungunya virus [1] was half-maximal at 13 µM (EC50). Further, in series [2], the CC50 at 18 h was 75.2 µM. Besides, in [3], the selectivity ratio amounted to 5.8.

For the compound `Cc1ccc(S(=O)(=O)Oc2ccc3c(CSc4nc5ccc(C)cc5c(=O)[nH]4)cc(=O)oc3c2)cc1`, the EC50 with Chikungunya virus [1] came out at 26.4 µM. Moreover, in [2], the half-maximal cytotoxic concentration (CC50) at 18 h was found to be 114 µM. The selectivity ratio in series [3] amounted to 4.3.

Consider `CC1CCCCCCCC(C)C(=O)O[C@H]2/C(=C/Cl)C=C3[C@]45OC6(c7ccccc7)O[C@H]([C@@H]4[C@@H]4O[C@]4(CO)C[C@@]32O)[C@@](O)([C@@H](O6)[C@H]5C)C(O)(COC(=O)c2ccccc2O)C1` (stereo partly drawn), for which, in the series on Chikungunya virus [4], the EC50 is 1.9 µM. In addition, in series [5], the CC50 came out at 4.6 µM.

Take `Cc1cnc(SCc2cc(=O)oc3cc(OCc4ccccc4)ccc23)[nH]c1=O`: in the series on Chikungunya virus [1], the EC50 is greater than 246 µM.

As for `Cc1ccc2nc(SCc3cc(=O)oc4cc(OS(=O)(=O)c5ccccc5)ccc34)[nH]c(=O)c2c1`, it took 58 µM to reach a half-maximal effect with Chikungunya virus [1] (EC50). Further, the CC50 at 18 h in [2] turned out to be 126 µM. Also, the selectivity ratio in series [3] turned out to be 2.2.

The compound `O=c1cc(CSc2nc3ccccc3c(=O)[nH]2)c2ccc(OS(=O)(=O)c3ccc(F)cc3)cc2o1` came in with a concentration giving a half-maximal response (EC50) in the series with Chikungunya virus [1] of 18.4 µM. Besides, in [2], the CC50 at 18 h turned out to be 30 µM. Moreover, the selectivity ratio in [3] came out at 1.6.

With `O=C1CCN=C(SCc2cc(=O)oc3cc(OS(=O)(=O)c4ccc(F)cc4)ccc23)N1`, the EC50 in the series with Chikungunya virus [1] amounted to 128 µM. Also, in series [2], the CC50 at 18 h is 111 µM.

For the compound `Cc1ccc2nc(SCc3cc(=O)oc4cc(OS(=O)(=O)c5ccc(F)cc5)ccc34)[nH]c(=O)c2c1`, a half-maximal response with Chikungunya virus [1] (EC50) required 116 µM. Further, in [2], the CC50 at 18 h came to 86.4 µM.

As for `Cc1cnc(SCc2cc(=O)oc3cc(O)ccc23)[nH]c1=O`, in the series with Chikungunya virus [1], the EC50 is greater than 316 µM.

With `CC1CCCCCCCC(C)C(=O)O[C@H]2/C(=C/Cl)C=C3[C@]45OC6(c7ccccc7)O[C@H]([C@@H]4[C@@H]4O[C@]4(CO)C[C@@]32O)[C@@](O)([C@@H](O6)[C@H]5C)C(O)(COC(=O)c2ccccc2)C1` (stereo partly drawn), the EC50 in the series with Chikungunya virus [4] was determined as 3.9 µM. For the same compound, the CC50 in [5] stood at 10.5 µM.

Consider `O=c1cc(CSc2nc3ccccc3c(=O)[nH]2)c2ccc(OCc3ccccc3)cc2o1`, for which the EC50 in the series with Chikungunya virus [1] is greater than 45.2 µM.

In the case of `Cc1ccc(COc2ccc3c(CSc4nc5ccccc5c(=O)[nH]4)cc(=O)oc3c2)cc1`, in the series on Chikungunya virus [1], the EC50 was greater than 2.19 µM. For the same compound, the CC50 at 18 h in series [2] was 102 µM.

In turn, `O=c1cc(CSc2nc3ccccc3c(=O)[nH]2)c2ccc(OS(=O)(=O)c3ccccc3[N+](=O)[O-])cc2o1` displayed an EC50 in the series on Chikungunya virus [1] of 17.2 µM. Besides, the CC50 at 18 h in series [2] came to 144 µM. Also, in series [3], the selectivity ratio came out at 8.8.

For the compound `O=c1ccnc(SCc2cc(=O)oc3cc(O)ccc23)[nH]1`, the 50% effective concentration (EC50) in the series with Chikungunya virus [1] is greater than 331 µM.

For `CC1CCCCCCCC(C)C(=O)O[C@H]2/C(=C/Cl)C=C3[C@]45OC6(c7ccccc7)O[C@H]([C@@H]4[C@@H]4O[C@]4(CO)C[C@@]32O)[C@@](O)([C@@H](O6)[C@H]5C)C(C)(O)C1` (stereo partly drawn), the EC50 in the series with Chikungunya virus [4] came out at 2.5 µM. Moreover, the CC50 in series [5] was determined as 5.3 µM.

In turn, `O=C1CCN=C(SCc2cc(=O)oc3cc(OS(=O)(=O)c4ccccc4)ccc23)N1` showed an EC50 in the series with Chikungunya virus [1] of 57.4 µM.

The compound `O=C1CCN=C(SCc2cc(=O)oc3cc(OS(=O)(=O)c4ccc([N+](=O)[O-])cc4)ccc23)N1` showed a concentration for a half-maximal effect (EC50) with Chikungunya virus [1] greater than 205 µM.

Compound `Cc1ccc(COc2ccc3c(CSc4ncc(C)c(=O)[nH]4)cc(=O)oc3c2)cc1` displayed an EC50 in the series on Chikungunya virus [1] greater than 48 µM.

`O=c1ccnc(SCc2cc(=O)oc3cc(OCc4ccc([N+](=O)[O-])cc4)ccc23)[nH]1` gave an EC50 in the series with Chikungunya virus [1] of 4.6 µM. For the same compound, the CC50 at 18 h in [2] came out at 13.8 µM. Moreover, the selectivity ratio in [3] was 3.

Consider `Cc1ccc(S(=O)(=O)Oc2ccc3c(CSc4nc5ccccc5c(=O)[nH]4)cc(=O)oc3c2)cc1`, for which the EC50 in the series on Chikungunya virus [1] turned out to be 10.2 µM. Further, the CC50 at 18 h in series [2] turned out to be 117 µM. Further, in [3], the selectivity ratio is 11.5.

The compound `O=c1cc(-c2ccc(O)cc2)oc2cc(O)cc(O)c12` [APIGENIN] returned an IC50 in the series on Chikungunya virus [6] of 22.5 to 127 µM.

In the case of `CN(C)CCCN1c2ccccc2Sc2ccc(Cl)cc21` [CHLORPROMAZINE], the IC50 in the series on Chikungunya virus [7] was 15.7 µM. Besides, the CC50 at 48 h in series [8] turned out to be 67.3 µM. The selectivity ratio in [9] came to 4.5.

`O=c1cc(-c2ccccc2)oc2cc(O)cc(O)c12` [CHRYSIN] displayed an IC50 in the series with Chikungunya virus [6] of 22.5 to 127 µM.

Turning to `CCN(CC)C(C)CN1c2ccccc2Sc2ccccc21` (stereo not drawn) [ETHOPROPAZINE], in the series with Chikungunya virus [7], the IC50 is 16 µM. Moreover, in [8], the CC50 at 48 h amounted to 167 µM. The selectivity ratio in series [9] is 10.4.

`CN1CCC(CN2c3ccccc3Sc3ccccc32)C1` (stereo not drawn) [METHDILAZINE]: in the series on Chikungunya virus [7], half-maximal inhibition (IC50) was put at 11.3 µM. For the same compound, the CC50 at 48 h in series [8] stood at 63.8 µM. The selectivity ratio in series [9] worked out at 5.6.

In the case of `OCCN1CCN(CCCN2c3ccccc3Sc3ccc(Cl)cc32)CC1` [PERPHENAZINE], the IC50 in the series on Chikungunya virus [7] is 25.1 µM. Also, in series [8], the CC50 at 48 h was determined as 155 µM. In addition, the selectivity ratio in [9] was determined as 6.2.

`CCSc1ccc2c(c1)N(CCCN1CCN(C)CC1)c1ccccc1S2` [THIETHYLPERAZINE] gave an IC50 in the series on Chikungunya virus [7] of 15 µM. In series [8], the CC50 at 48 h came to 83.1 µM. Besides, the selectivity ratio in series [9] is 5.5.

Values taken from ChEMBL document CHEMBL4177563, “The medicinal chemistry of Chikungunya virus” (Bioorg Med Chem, 2017).
